From ChEMBL document CHEMBL2176973, “Synthesis and SAR Studies of Fused Oxadiazines as γ-Secretase Modulators for Treatment of Alzheimer's Disease” (ACS Med Chem Lett, 2012)
Active and inactive are the calls of the source. The rule behind the calls is not given here.

How the values were obtained:
[1] = molecular target: T1, Gamma-secretase (Homo sapiens) (UniProt Q96BI3+Q9NZ42+Q8WW43+P49768+Q92542+P49810); test: Modulation of gamma-secretase expressed in HEK293 cells co-expressing APPsw-lon assessed as reduction of total amyloid beta/amyloid-beta-42 ratio by sandwich immunoassay; assay type: cell-based
Gamma-secretase = test: Modulation of gamma-secretase expressed in HEK293 cells co-expressing APPsw-lon assessed as reduction of amyloid-beta-42 level by sandwich immunoassay; assay type: cell-based, Homo sapiens
Rattus norvegicus [2] = species on record: Rattus norvegicus; test: Toxicity in rat assessed as biomarker changes; assay type: organism-based; conditions: in vivo
Rattus norvegicus [3] = species on record: Rattus norvegicus; test: Toxicity in rat assessed as Notch-related side effects; assay type: organism-based; conditions: in vivo
Canis familiaris = species on record: Canis familiaris; test: Cardiotoxicity in dog assessed as effect on QTc intervals; assay type: toxicity, organism-based, Canis lupus familiaris; conditions: in vivo
[4] = Activity at p-glycoprotein
Caco-2 = test: Permeability across human Caco2 cells; assay type: ADME, cell-based
Rattus norvegicus [5] = test: Antialzheimer's activity in po dosed rat assessed as reduction of amyloid-beta-42 level in CSF after 3 hrs by AlphaLISA amyloid assay; assay type: functional, organism-based
[6] = molecular target: T1, Gamma-secretase (Homo sapiens); test: Modulation of gamma-secretase-mediated Notch processing expressed in HEK293 cells co-expressing human Notch1 protein up to 50 uM; assay type: cell-based
[7] = Clearance in rat; assay type: ADME, organism-based; conditions: in vivo
[8] = Volume of distribution at steady state in rat; assay type: ADME, organism-based; conditions: in vivo, read-out: Vdss
[9] = Half life in rat; assay type: ADME, organism-based; conditions: in vivo
[10] = Oral bioavailability in rat; assay type: ADME, organism-based; conditions: in vivo
[11] = Plasma concentration in rat at 10 mg/kg, po after 3 hrs; assay type: ADME, organism-based; parameters: dose 10 mg/kg, route oral
hERG (KCNH2) = hERG (KCNH2) (Homo sapiens, UniProt Q12809); test: Inhibition of human ERG at 10 uM
[12] = Ratio of drug level in brain to plasma rat at 10 mg/kg, po after 6 hrs; assay type: ADME, organism-based; parameters: dose 10 mg/kg, route oral; conditions: read-out: BPR
[13] = Drug level in rat brain at 10 mg/kg, po after 6 hrs; assay type: ADME, organism-based; parameters: dose 10 mg/kg, route oral; conditions: read-out: Drug uptake
[14] = AUC (0 to 6 hrs) in rat plasma at 10 mg/kg, po; assay type: ADME, organism-based; parameters: time < 6 hr, dose 10 mg/kg, route oral
Rattus norvegicus [15] = test: Antialzheimer's activity in rat assessed as reduction of amyloid-beta-42 level in CSF at 10 mg/kg, po after 3 hrs by AlphaLISA amyloid assay; assay type: functional
[16] = Drug level in rat brain at 10 mg/kg, po after 3 hrs; assay type: ADME, organism-based; parameters: dose 10 mg/kg, route oral; conditions: read-out: Drug uptake

hERG (KCNH2), sequence (Q12809 whole entry): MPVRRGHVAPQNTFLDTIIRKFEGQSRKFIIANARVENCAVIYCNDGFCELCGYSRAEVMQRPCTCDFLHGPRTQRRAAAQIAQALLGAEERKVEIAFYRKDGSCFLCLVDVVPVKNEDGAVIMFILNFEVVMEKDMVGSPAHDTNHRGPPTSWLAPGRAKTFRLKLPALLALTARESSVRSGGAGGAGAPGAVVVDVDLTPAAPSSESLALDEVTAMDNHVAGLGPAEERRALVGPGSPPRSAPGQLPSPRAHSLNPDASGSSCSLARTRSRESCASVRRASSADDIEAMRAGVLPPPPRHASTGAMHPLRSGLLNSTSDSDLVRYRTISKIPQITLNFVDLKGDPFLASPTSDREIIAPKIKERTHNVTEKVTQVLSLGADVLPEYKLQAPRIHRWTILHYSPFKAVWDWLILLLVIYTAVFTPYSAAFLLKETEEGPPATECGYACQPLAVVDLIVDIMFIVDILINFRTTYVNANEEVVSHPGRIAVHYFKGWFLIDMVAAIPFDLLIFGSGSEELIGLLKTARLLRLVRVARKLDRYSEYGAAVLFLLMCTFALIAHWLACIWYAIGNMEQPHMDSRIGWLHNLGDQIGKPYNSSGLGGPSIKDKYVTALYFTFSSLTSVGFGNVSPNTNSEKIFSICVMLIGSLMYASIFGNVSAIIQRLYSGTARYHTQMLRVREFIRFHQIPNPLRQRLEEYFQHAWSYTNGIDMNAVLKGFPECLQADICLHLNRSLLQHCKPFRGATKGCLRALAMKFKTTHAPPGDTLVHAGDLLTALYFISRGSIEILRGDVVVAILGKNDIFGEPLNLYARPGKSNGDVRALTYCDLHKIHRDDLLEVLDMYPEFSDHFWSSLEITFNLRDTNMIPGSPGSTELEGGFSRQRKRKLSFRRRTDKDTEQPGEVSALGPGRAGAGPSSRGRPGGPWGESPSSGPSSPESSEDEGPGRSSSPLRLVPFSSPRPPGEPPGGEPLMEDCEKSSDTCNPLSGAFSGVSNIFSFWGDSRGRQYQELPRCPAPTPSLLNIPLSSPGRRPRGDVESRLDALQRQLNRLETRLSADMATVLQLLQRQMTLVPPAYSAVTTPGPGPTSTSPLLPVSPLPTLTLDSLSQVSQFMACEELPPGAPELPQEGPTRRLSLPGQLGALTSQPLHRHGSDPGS

SMILES | Ratio [1] | IC50 (Gamma-secretase) | also measured
COc1cc(/C=C2\CCCN3CC(c4cnccn4)ON=C23)ccc1-n1cnc(C)c1 (racemic) | 2 | 9000 nM | –
COc1cc(/C=C2\CCCN3C(=O)CON=C23)ccc1-n1cnc(C)c1 | 8 | 2500 nM | –
COc1cc(/C=C2\CCCN3CC(CO[Si](c4ccccc4)(c4ccccc4)C(C)(C)C)ON=C23)ccc1-n1cnc(C)c1 (racemic) | 80 | 56 nM | –
COc1cc(/C=C2\CCCN3CC(c4nccn4C)ON=C23)ccc1-n1cnc(C)c1 (racemic) | 3 | 6700 nM | –
COc1cc(/C=C2\O[C@@H](C)CN3C2=NOC[C@@H]3c2cc(F)cc(F)c2)ccc1-n1cnc(C)c1 | 550 | 35 nM | –
COc1cc(/C=C2\CCCN3C2=NOC[C@@H]3CC(C)C)ccc1-n1cnc(C)c1 | 149 | 73 nM | –
COc1cc(/C=C2\CCCN3C2=NOCC3(CO)c2ccc(F)cc2)ccc1-n1cnc(C)c1 (racemic) | 2 | 13300 nM | –
COc1cc(/C=C2\CCCN3C2=NOC[C@@H]3c2cc(F)c(F)c(F)c2)ccc1-n1cnc(C)c1 | 607 | 33 nM | Activity (Rattus norvegicus [2]): Non-toxic; Activity (Rattus norvegicus [3]): Non-toxic; Activity (Canis familiaris): Non-toxic; Activity [4]: inactive; permeability (Caco-2): permeable; inhibition (Rattus norvegicus [5]): Dose-dependent effect; Activity [6]: inactive; clearance [7]: 1.4 mL/min/kg; Vd [8]: 0.4 L/kg; half-life [9]: 210 min; bioavailability [10]: 100%; concentration at 3 h [11]: 10.7 µM; inhibition at 10 µM (hERG (KCNH2)): 76%; Kp at 6 h [12]: 0.4; concentration at 6 h [13]: 2910 ng/g; AUC(0-t) at 6 h [14]: 87.4 µM·h; inhibition in vivo at 10 mg/kg (Rattus norvegicus [15]): 62%
COc1cc(/C=C2\O[C@@H](C)CN3C2=NOC[C@@H]3c2cc(F)c(F)c(F)c2)ccc1-n1cnc(C)c1 | 320 | 46 nM | –
COc1cc(/C=C2\CCCN3CC(C(O)c4cc(F)cc(F)c4)ON=C23)ccc1-n1cnc(C)c1 (racemic) | 265 | 76 nM | –
COc1cc(/C=C2\CCCN3C2=NOC[C@@H]3c2cc(F)cc(Cl)c2)ccc1-n1cnc(C)c1 | 507 | 39 nM | concentration at 3 h [11]: 7.2 µM; Kp at 6 h [12]: 1.1; concentration at 6 h [13]: 1340 ng/g; AUC(0-t) at 6 h [14]: 24.6 µM·h; inhibition in vivo at 10 mg/kg (Rattus norvegicus [15]): 62%
COc1cc(/C=C2\CCCN3C2=NOC[C@@H]3CS(C)(=O)=O)ccc1-n1cnc(C)c1 | 1 | 19000 nM | –
COc1cc(/C=C2\CCCN3C2=NOC[C@@H]3c2ccccc2)ccc1-n1cnc(C)c1 | 210 | 87 nM | concentration at 3 h [11]: 6.2 µM; concentration at 3 h [16]: 2.8 µM; Kp at 6 h [12]: 0.9; concentration at 6 h [13]: 539 ng/g; AUC(0-t) at 6 h [14]: 17.6 µM·h; inhibition in vivo at 10 mg/kg (Rattus norvegicus [15]): 39%
COc1cc(/C=C2\CCCN3CC(COCc4ccccc4)ON=C23)ccc1-n1cnc(C)c1 (racemic) | 80 | 250 nM | –
COc1cc(/C=C2\CCCN3CC(COc4ccccc4)ON=C23)ccc1-n1cnc(C)c1 (racemic) | 147 | 140 nM | –
CCc1csc(C[C@H]2CON=C3/C(=C/c4ccc(-n5cnc(C)c5)c(OC)c4)CCCN32)n1 | 3 | 6400 nM | –
COc1cc(/C=C2\CCCN3C2=NOC3(CO)c2ccc(F)cc2)ccc1-n1cnc(C)c1 (centres undefined) | 289 | 75 nM | –
COc1cc(/C=C2\CCCN3CC(CO)ON=C23)ccc1-n1cnc(C)c1 (racemic) | 4 | 5400 nM | –
COc1cc(/C=C2\CCCN3C2=NOC32CCOc3ccc(F)cc32)ccc1-n1cnc(C)c1 (centres undefined) | 223 | 58 nM | –
COc1cc(/C=C2\O[C@H](C)CN3C2=NOC[C@@H]3c2cc(F)c(F)c(F)c2)ccc1-n1cnc(C)c1 | 1170 | 11 nM | inhibition in vivo at 10 mg/kg (Rattus norvegicus [15]): 60%
COc1cc(/C=C2\CCCN3CC(c4ccccc4)ON=C23)ccc1-n1cnc(C)c1 (racemic) | 91 | 210 nM | –

SMILES | Ratio [1] | IC50 (Gamma-secretase) | also measured
COc1cc(/C=C2\CCCN3C2=NOC[C@@H]3CNC(=O)c2cccc(Cl)c2)ccc1-n1cnc(C)c1 | 24 | 820 nM | –
COc1cc(/C=C2\CCCN3C2=NOC[C@@H]3CO)ccc1-n1cnc(C)c1 | 6 | 3300 nM | –
COc1cc(/C=C2\CCCN3C2=NOC[C@@H]3Cc2ccccc2)ccc1-n1cnc(C)c1 | 238 | 80 nM | –
COc1cc(/C=C2\CCCN3C2=NOC[C@@H]3COCc2ccccc2)ccc1-n1cnc(C)c1 | 120 | 100 nM | –
COc1cc(/C=C2\CCCN3C2=NO[C@]3(CO)c2ccc(F)cc2)ccc1-n1cnc(C)c1 | 488 | 29 nM | –
COc1cc(/C=C2\CCCN3C2=NOC[C@@H]3C(C)(C)C)ccc1-n1cnc(C)c1 | 162 | 120 nM | –
COc1cc(/C=C2\CCCN3C2=NOC[C@@H]3c2ccc(F)cc2)ccc1-n1cnc(C)c1 | 385 | 37 nM | concentration at 3 h [11]: 6.7 µM; concentration at 3 h [16]: 7.7 µM; Kp at 6 h [12]: 0.8; concentration at 6 h [13]: 2850 ng/g; AUC(0-t) at 6 h [14]: 86.5 µM·h; inhibition in vivo at 10 mg/kg (Rattus norvegicus [15]): 53%
COc1cc(/C=C2\CCCN3C2=NOC[C@@H]3CC(=O)N2CCCCC2)ccc1-n1cnc(C)c1 | 13 | 1500 nM | –
COc1cc(/C=C2\CCCN3C2=NOCC32CCOc3ccc(F)cc32)ccc1-n1cnc(C)c1 (racemic) | 50 | 400 nM | –
COc1cc(/C=C2\CCCN3C2=NOC[C@@H]3CN2CCOCC2)ccc1-n1cnc(C)c1 | 5 | 3700 nM | –
COc1cc(/C=C2\CCCN3C2=NOC[C@@H]3C(C)C)ccc1-n1cnc(C)c1 | 34 | 530 nM | –
COc1cc(/C=C2\CCCN3C2=NOC3(C)c2ccc(F)cc2)ccc1-n1cnc(C)c1 (centres undefined) | 237 | 58 nM | –
COc1cc(/C=C2\CCCN3C2=NOCC3(C)c2ccc(F)cc2)ccc1-n1cnc(C)c1 (racemic) | 69 | 230 nM | –
COc1cc(/C=C2\O[C@H](C)CN3C2=NOC[C@@H]3c2cc(F)cc(F)c2)ccc1-n1cnc(C)c1 | 1220 | 16 nM | –
COc1cc(/C=C2\CCCN3C2=NOC[C@@H]3C2CCOCC2)ccc1-n1cnc(C)c1 | 11 | 1900 nM | –
COc1cc(/C=C2\CCCN3CC(Cc4ccccc4)ON=C23)ccc1-n1cnc(C)c1 (racemic) | 241 | 83 nM | –
COc1cc(/C=C2\CCCN3C(=O)C(c4cc(F)cc(F)c4)ON=C23)ccc1-n1cnc(C)c1 (racemic) | 18 | 1100 nM | –
COc1cc(/C=C2\CCCN3CCON=C23)ccc1-n1cnc(C)c1 | 7 | 3100 nM | –
COc1cc(/C=C2\CCCN3C2=NOC[C@@H]3c2cc(F)c(OC)c(F)c2)ccc1-n1cnc(C)c1 | 459 | 44 nM | concentration at 3 h [11]: 6.3 µM; Kp at 6 h [12]: 1.1; concentration at 6 h [13]: 268 ng/g; AUC(0-t) at 6 h [14]: 22.7 µM·h; inhibition in vivo at 10 mg/kg (Rattus norvegicus [15]): 26%
COc1cc(/C=C2\CCCN3CC(c4cccc5ccccc45)ON=C23)ccc1-n1cnc(C)c1 (racemic) | 158 | 130 nM | –
COc1cc(/C=C2\CCCN3C2=NOCC3C(O)c2ccc(Cl)cc2)ccc1-n1cnc(C)c1 (centres undefined) | 49 | 300 nM | –
